Assay results reported in patent US6849663B2, “2-Aminotetralines, a process for their preparation, and pharmaceutical compositions, for the prevention and therapeutic treatment of inflammatory and/or autoimmune pathologies” (Sigma-Tau Industrie Farmaceutiche Riunite S.p.A., priority 1997, dated 2005).
Where “and” joins values, the source holds several entries; their conditions need not be identical. Identical values can stand only once. Counter-ions that a name gives are not always drawn. Like-named read-outs stand apart in the source and are kept apart here.

Legend:
S. typhosa LPS = tested on: S. typhosa LPS; parameters: species or system mice; settings: mouse, in vivo; for Survival increase (%): iv
E. coli LPS = tested on: E. coli LPS; parameters: species or system mice; settings: mouse, in vivo
TNF [1] = assay: Serum TNF after Salmonella typhosa LPS in mice; type: in vivo; settings: 6 mg/kg i.v., −30/+5 min schedule, LPS control 154.2
Description: Animals were treated intraperitoneally (i.p.) with S. typhosa LPS. Prior to use, the endotoxin was first dissolved in sterile saline and then injected in a volume of 200 μL, at the dose of 27.0 mg/kg, corresponding to about the LD80.
The compounds tested were administered intravenously (i.v.) in a volume of 200 μL of sterile saline at the dose approximately corresponding to 1/10 LD50, 30 min before and again 5 min after the endotoxic challenge (LPS).
In both experimental models, blood samples were taken 90 min after the challenge (peak serum TNF level).
Ether-anaesthetised mice were bled by retro-orbital sinus puncture.
Blood samples were incubated at room temperature for 2 h and the serum thus obtained was centrifuged for 20 min at 3000 rpm and stored at −80° C. pending TNF assay.
TNF biological activity was determined in RPMI medium containing 1% FCS.
50 μL/well of serial dilutions of samples containing TNF were added directly to the Primaria microtiter plates.
The experimental conditions utilised were the same as those previously described.
Data were analysed statistically using the one-tailed Student's t test.

[2] = tested on: SEB (Staphylococcus aureus) enterotoxin; parameters: species or system mice; settings: mouse, in vivo
IFN-γ = tested on: IFN-γ; parameters: species or system mice; settings: mouse, in vivo
TNF [3] = assay: TNF production induced by LPS in rat blood culture; type: cell-based
IL-6 = tested on: IL-6; parameters: species or system mice; settings: mouse, in vivo
TNF [4] = tested on: TNF; parameters: species or system mice; settings: mouse, in vivo
TNF [5] = tested on: TNF; parameters: species or system mice; settings: mouse, in vivo; remark: listed apart in the source
IL-1β = tested on: IL-1β; parameters: species or system mice; settings: mouse, in vivo

| Structure (SMILES) | Dead/Total (S. typhosa LPS) | Survival increase (%) (S. typhosa LPS) | Dead/Total (E. coli LPS) | Survival increase (%) (E. coli LPS; iv) | effect on lethality (in words) (S. typhosa LPS) | Dead/Total [2] | Survival increase (%) ([2]; iv) | further results |
| --- | --- | --- | --- | --- | --- | --- | --- | --- |
| COc1cc2c(cc1F)CC[C@@H](N)C2 (racemic) [ST 626, (R,S)-2-amino-6-fluoro-7-methoxytetraline hydrochloride, reference compound] | 6/20 | +40% | 21/28 | +11% |  |  |  | TNF (U/mL) Mean (TNF [1]): 35.0 U/mL |
| CC(=O)c1cc2c(cc1C)CC[C@@H](N)C2.Cl (racemic) [ST 1274, (R,S)-7-acetyl-2-amino-6-methyltetraline hydrochloride] | 10/20 | +40% | 5/10 |  | significantly reduce the lethality | 0/10 | +90% |  |
| Cc1cc2c(cc1F)CC[C@@H](N)C2.Cl (racemic) [ST 1275, (R,S)-2-amino-6-fluoro-7-methyltetraline hydrochloride] | 6/10 | +40% | 5/10 |  | significantly reduce the lethality | 1/10 | +80% |  |
| Cl.N[C@@H]1CCc2cc(F)c(O)cc2C1 [ST 1238, R(+)-2-amino-6-fluoro-7-hydroxytetraline hydrochloride] |  |  |  | +60% |  |  | +70% | IFN-γ (pg/mL) Mean (IFN-γ): 25 pg/mL; effect on IFN-γ production (in words) (IFN-γ): significantly reduces the production; TNF (mean % values) (TNF [3]): 61%; reduction of TNF production (TNF [3]; rat blood cultures stimulated with LPS, compound 50 μM): 39%; Survival increase (%) (E. coli LPS): +44%; effect on lethality (in words) (E. coli LPS): significantly reduces the lethality; Dead/Total (E. coli LPS; hydrochloride): 5/20 and 7/19; IL-6 (pg/mL) Mean (IL-6): 599 pg/mL; effect on IL-6 production (in words) (IL-6): significantly reduces the production; effect on TNF levels (in words) (TNF [4]): significantly reduces TNF levels; TNF (U/mL) Mean (TNF [5]): 6.2 U/mL; TNF (U/mL) mean (TNF [5]): 27.0 U/mL; effect on TNF production (in words) (TNF [5]): significantly reduces TNF production; IL-1β (pg/mL) Mean (IL-1β): 0.9 pg/mL; Survival increase (%) [2]: +70%; protective effect (in words) [2]: extremely significant protective effect; Dead/Total ([2]; hydrochloride): 1/20 and 4/20 |
